In US8993542B2, “Methods of treating viral infections” (priority 2008, dated 2015):

Tests used:
[1] = system: HIV-1IIIB; experiment: Two-drug combination antiviral assay in CEM cells (CPE), MacSynergy II; type: cell-based; settings: in combination with CMX157, CEM-SS cells, 95% confidence
[2] = system: HIV; experiment: microbe, parasite or virus in culture; type: cell-based
[3] = Human immunodeficiency virus 1, PANEL 1, WT
[4] = Human immunodeficiency virus 1, PANEL 2, WT
[5] = Human immunodeficiency virus 1, PANEL 3, 6 TAMs, no 184
[6] = Human immunodeficiency virus 1, PANEL 6, 6 TAMs + 184
[7] = Human immunodeficiency virus 1, PANEL 7, 184V
[8] = Human immunodeficiency virus 1, PANEL 9, 69ins, no 184
[9] = Human immunodeficiency virus 1, PANEL 12, 69ins + 184
[10] = Human immunodeficiency virus 1, PANEL 14, 65R, no 184
[11] = Human immunodeficiency virus 1, PANEL 15, 65R + 184V
[12] = Human immunodeficiency virus 1, PANEL 17, L74V
[13] = Human immunodeficiency virus 1, PANEL 19, L74V + M184V
[14] = Human immunodeficiency virus 1, PANEL 26, 151M, no 184
[15] = Human immunodeficiency virus 1, PANEL 28, 151M + 184
[16] = Human immunodeficiency virus 1, PANEL 29, L74V − SDM
[17] = Human immunodeficiency virus 1, PANEL 30, M184V − SDM
[18] = Human immunodeficiency virus 1, PANEL 31, K65R − SDM
[19] = Human immunodeficiency virus 1, PANEL 33, T215Y
[20] = Human immunodeficiency virus 1, PANEL 34, T215Y + M184V
[21] = Human immunodeficiency virus 1, PANEL 35, M41L + T215Y
[22] = Human immunodeficiency virus 1, PANEL 37, M41L + T215Y + M184V
[23] = Human immunodeficiency virus 1, PANEL 38, M41L + L210W + T215Y
[24] = Human immunodeficiency virus 1, PANEL 39, M41L + L210W + T215Y
[25] = Human immunodeficiency virus 1, PANEL 40, M41L + L210W + T215Y + M184V
[26] = Human immunodeficiency virus 1, PANEL 41, M41L + L210W + T215Y + M184V
[27] = Human immunodeficiency virus 1, PANEL 42, D67N + K70R
[28] = Human immunodeficiency virus 1, PANEL 44, D67N + K70R + T215F + K219E + M184V
[29] = Human immunodeficiency virus 1, PANEL 45, L210W + T215Y
[30] = Human immunodeficiency virus 1, PANEL 46, D67N + K70E
[31] = Human immunodeficiency virus 1, PANEL 47, D67N + K70E + M184V
[32] = Human immunodeficiency virus 1, PANEL 48, K70E + M184V
[33] = PANEL 40, M41L + L210W + T215Y + M184V
[34] = PANEL 41, M41L + L210W + T215Y + M184V
[35] = PANEL 44, D67N + K70R + T215F + K219E + M184V

SMILES: OC[C@@H]1CC[C@H](n2cnc3c(O)ncnc32)O1 [ddI, 2′,3′-dideoxyinosine]
- Antagonism Volume, Result 1 [1]: −1.01 nM^2 %, μM^2 % or nMμM %
- Synergy Volume, Result 1 [1]: 3.38 nM^2 %, μM^2 % or nMμM %
- IC50 [2, 3]: 5.54 µM
- IC50 [2, 4]: 5.57 µM
- IC50 [2, 5]: 8.76 µM
- IC50 [2, 6]: 11.3 µM
- IC50 [2, 7]: 7.57 µM
- IC50 [2, 8]: 22.2 µM
- IC50 [2, 9]: 24.3 µM
- IC50 [2, 10]: 9.17 µM
- IC50 [2, 11]: 14.3 µM
- IC50 [2, 12]: 8.94 µM
- IC50 [2, 13]: 11.1 µM
- IC50 [2, 14]: 63.2 µM
- IC50 [2, 15]: 58 µM
- IC50 [2, 16]: 8.14 µM
- IC50 [2, 17]: 6.76 µM
- IC50 [2, 18]: 11 µM
- IC50 [2, 19]: 6.29 µM
- IC50 [2, 20]: 7.88 µM
- IC50 [2, 21]: 6.29 µM
- IC50 [2, 22]: 10.1 µM
- IC50 [2, 23]: 7.5 µM
- IC50 [2, 24]: 5.9 µM
- IC50 [2, 25]: 8.18 µM
- IC50 [2, 26]: 8.64 µM
- IC50 [2, 27]: 6.57 µM
- IC50 [2, 28]: 8.65 µM
- IC50 [2, 29]: 5.51 µM
- IC50 [2, 30]: 7.73 µM
- IC50 [2, 31]: 7.25 µM
- IC50 [2, 32]: 9.91 µM
- IC50 Fold Change ([2]; PANEL 1, WT): 1.01
- IC50 Fold Change ([2]; PANEL 2, WT): 1.01
- IC50 Fold Change ([2]; PANEL 3, 6 TAMs, no 184): 1.59
- IC50 Fold Change ([2]; PANEL 6, 6 TAMs + 184): 2.06
- IC50 Fold Change ([2]; PANEL 7, 184V): 1.38
- IC50 Fold Change ([2]; PANEL 9, 69ins, no 184): 4.04
- IC50 Fold Change ([2]; PANEL 12, 69ins + 184): 4.43
- IC50 Fold Change ([2]; PANEL 14, 65R, no 184): 1.67
- IC50 Fold Change ([2]; PANEL 15, 65R + 184V): 2.61
- IC50 Fold Change ([2]; PANEL 17, L74V): 1.63
- IC50 Fold Change ([2]; PANEL 19, L74V + M184V): 2.01
- IC50 Fold Change ([2]; PANEL 26, 151M, no 184): 12.00
- IC50 Fold Change ([2]; PANEL 28, 151M + 184): 11.00
- IC50 Fold Change ([2]; PANEL 29, L74V − SDM): 1.48
- IC50 Fold Change ([2]; PANEL 30, M184V − SDM): 1.23
- IC50 Fold Change ([2]; PANEL 31, K65R − SDM): 2.00
- IC50 Fold Change ([2]; PANEL 33, T215Y): 1.14
- IC50 Fold Change ([2]; PANEL 34, T215Y + M184V): 1.43
- IC50 Fold Change ([2]; PANEL 35, M41L + T215Y): 1.14
- IC50 Fold Change ([2]; PANEL 37, M41L + T215Y + M184V): 1.84
- IC50 Fold Change ([2]; PANEL 38, M41L + L210W + T215Y): 1.36
- IC50 Fold Change ([2]; PANEL 39, M41L + L210W + T215Y): 1.07
- IC50 Fold Change [2, 33]: 1.49
- IC50 Fold Change [2, 34]: 1.57
- IC50 Fold Change ([2]; PANEL 42, D67N + K70R): 1.19
- IC50 Fold Change [2, 35]: 1.57
- IC50 Fold Change ([2]; PANEL 45, L210W + T215Y): 1.00
- IC50 Fold Change ([2]; PANEL 46, D67N + K70E): 1.41
- IC50 Fold Change ([2]; PANEL 47, D67N + K70E + M184V): 1.32
- IC50 Fold Change ([2]; PANEL 48, K70E + M184V): 1.80

SMILES: Cc1cn([C@H]2C=C[C@@H](CO)O2)c(=O)[nH]c1=O [d4T, 2′,3′-didehydro-3′-deoxythymidine]
- Antagonism Volume, Result 1 [1]: 0 nM^2 %, μM^2 % or nMμM %
- Antagonism Volume, Result 2 [1]: 0 nM^2 %, μM^2 % or nMμM %
- Antagonism Volume, Result 3 [1]: −1.83 nM^2 %, μM^2 % or nMμM %
- Mean Antagonism Volume (n = 3) [1]: −0.61 nM^2 %, μM^2 % or nMμM %
- Mean Synergy Volume (n = 3) [1]: 15.2 nM^2 %, μM^2 % or nMμM %
- Synergy Volume, Result 1 [1]: 4.47 nM^2 %, μM^2 % or nMμM %
- Synergy Volume, Result 2 [1]: 40.6 nM^2 %, μM^2 % or nMμM %
- Synergy Volume, Result 3 [1]: 0.39 nM^2 %, μM^2 % or nMμM %
- IC50 [2, 3]: 0.51 µM
- IC50 [2, 4]: 0.48 µM
- IC50 [2, 5]: 2.17 µM
- IC50 [2, 6]: 1.35 µM
- IC50 [2, 7]: 0.46 µM
- IC50 [2, 8]: 6.39 µM
- IC50 [2, 9]: 6.79 µM
- IC50 [2, 10]: 0.77 µM
- IC50 [2, 11]: 0.59 µM
- IC50 [2, 12]: 0.6 µM
- IC50 [2, 13]: 0.42 µM
- IC50 [2, 14]: 5.54 µM
- IC50 [2, 15]: 4.22 µM
- IC50 [2, 16]: 0.63 µM
- IC50 [2, 17]: 0.4 µM
- IC50 [2, 18]: 0.83 µM
- IC50 [2, 19]: 0.83 µM
- IC50 [2, 20]: 0.65 µM
- IC50 [2, 21]: 0.84 µM
- IC50 [2, 22]: 0.86 µM
- IC50 [2, 23]: 1.22 µM
- IC50 [2, 24]: 1.09 µM
- IC50 [2, 25]: 0.88 µM
- IC50 [2, 26]: 1.05 µM
- IC50 [2, 27]: 0.78 µM
- IC50 [2, 28]: 0.79 µM
- IC50 [2, 29]: 0.94 µM
- IC50 [2, 30]: 0.56 µM
- IC50 [2, 31]: 0.42 µM
- IC50 [2, 32]: 0.39 µM
- IC50 Fold Change ([2]; PANEL 1, WT): 0.86
- IC50 Fold Change ([2]; PANEL 2, WT): 0.81
- IC50 Fold Change ([2]; PANEL 3, 6 TAMs, no 184): 3.66
- IC50 Fold Change ([2]; PANEL 6, 6 TAMs + 184): 2.28
- IC50 Fold Change ([2]; PANEL 7, 184V): 0.77
- IC50 Fold Change ([2]; PANEL 9, 69ins, no 184): 11.00
- IC50 Fold Change ([2]; PANEL 12, 69ins + 184): 11.00
- IC50 Fold Change ([2]; PANEL 14, 65R, no 184): 1.30
- IC50 Fold Change ([2]; PANEL 15, 65R + 184V): 0.99
- IC50 Fold Change ([2]; PANEL 17, L74V): 1.01
- IC50 Fold Change ([2]; PANEL 19, L74V + M184V): 0.71
- IC50 Fold Change ([2]; PANEL 26, 151M, no 184): 9.33
- IC50 Fold Change ([2]; PANEL 28, 151M + 184): 7.10
- IC50 Fold Change ([2]; PANEL 29, L74V − SDM): 1.07
- IC50 Fold Change ([2]; PANEL 30, M184V − SDM): 0.68
- IC50 Fold Change ([2]; PANEL 31, K65R − SDM): 1.40
- IC50 Fold Change ([2]; PANEL 33, T215Y): 1.40
- IC50 Fold Change ([2]; PANEL 34, T215Y + M184V): 1.10
- IC50 Fold Change ([2]; PANEL 35, M41L + T215Y): 1.41
- IC50 Fold Change ([2]; PANEL 37, M41L + T215Y + M184V): 1.46
- IC50 Fold Change ([2]; PANEL 38, M41L + L210W + T215Y): 2.06
- IC50 Fold Change ([2]; PANEL 39, M41L + L210W + T215Y): 1.84
- IC50 Fold Change [2, 33]: 1.48
- IC50 Fold Change [2, 34]: 1.77
- IC50 Fold Change ([2]; PANEL 42, D67N + K70R): 1.31
- IC50 Fold Change [2, 35]: 1.32
- IC50 Fold Change ([2]; PANEL 45, L210W + T215Y): 1.58
- IC50 Fold Change ([2]; PANEL 46, D67N + K70E): 0.94
- IC50 Fold Change ([2]; PANEL 47, D67N + K70E + M184V): 0.70
- IC50 Fold Change ([2]; PANEL 48, K70E + M184V): 0.65
